Results published in publication PMC12657321, “Pre-clinical evaluation of a potent and effective Pin1-degrading agent in pancreatic cancer” (Molecular Therapy Oncology, 2025).
Non-standard residues stand in square brackets, D forms with d. Residues, ends and D or L forms follow the SMILES beside them. *: point of attachment. Trp(6-Cl) = N[C@@H](Cc1c[nH]c2cc(Cl)ccc12)C(=O)O; Pip = O=C(O)[C@@H]1CCCCN1; ClAc = O=C(CCl)*

How the values were obtained:
[1] = Human plasma stability; type: in vitro ADME; conditions: 37°C, up to 6 h, acetonitrile quench, LC-MS/MS
Protocol: (§1) A solution of a Pin1 inhibitor was spiked into blank plasma at 1 μg/mL in various solutions, including an aqueous buffer (1× phosphate-buffered saline; Fisher Scientific, Fair Lawn, NJ), human plasma (Innovative Research Inc., Novi, MI), wild-type mouse plasma (Innovative Research Inc., Novi, MI), plasma form esterase-deficient mice (City of Hope, Duarte, CA), and plasma from Black 6-Cg mice (City of Hope, Duarte, CA).
(§2) The spiked plasma samples were incubated at 37°C for up to 6 h. At each designated time point, a 20 μL aliquot of the incubation sample was removed and quenched in 100 μL of acetonitrile. At the end of the incubation, the quenched samples were vortexed and centrifuged for 10 min at 4°C and 20,000 × g. The resulting supernatant was reconstituted and analyzed by LC-MS/MS.
(§3) Table S2. Stability half-life of agents reported in Table 1 after incubation at 37 °C in various media. Acq represents aqueous buffer composed of 1x phosphate buffered saline (Fisher Scientific, Fair Lawn, NJ); human represents human plasma (Innovative Research Inc., Novi, MI); mouse wt represents wild type mouse plasma (Innovative Research Inc., Novi, MI); mouse ES1e represents plasma form esterase deficient mice (City of Hope, Duarte, CA); mouse B6-Cg represents plasma from black 6-Cg mice (City of Hope, Duarte, CA). See Figure 1 for the chemical structures of these compounds.
(§4) Compound Acq Human Mouse Mouse ES1e Mouse

[2] = Stability in plasma from Black 6-Cg mice; type: in vitro ADME; conditions: Black 6-Cg (B6-Cg), mouse, 37°C, up to 6 h, acetonitrile quench, LC-MS/MS
Protocol: as §1, §2, §3, §4

[3] = Stability in plasma from esterase-deficient (ES1e) mice; type: in vitro ADME; conditions: mouse, 37°C, up to 6 h, acetonitrile quench, LC-MS/MS
Protocol: as §1, §2, §3, §4

[4] = Wild-type mouse plasma stability; type: in vitro ADME; conditions: 37°C, up to 6 h, acetonitrile quench, LC-MS/MS, values given in min, read-out: Stability half-life, Mouse WT (converted)
Protocol: as §1, §2, §3, §4

[5] = Stability in aqueous buffer (1x PBS); type: physicochemical; conditions: 1x phosphate buffered saline, 1 μg/mL, 37°C, up to 6 h, acetonitrile quench, LC-MS/MS
Protocol: as §1, §2, §3, §4

Row | SMILES | half-life at 1 μg/mL [1] [h] | half-life at 1 μg/mL [2] [h] | half-life at 1 μg/mL [3] [h] | half-life at 1 μg/mL [4] [h] | Stability half-life, Acq (aqueous buffer) [5] [h]
1 | NC(=O)[C@H](Cc1c[nH]c2ccccc12)NC(=O)[C@@H]1CCCCN1C(=O)[C@H](Cc1c[nH]c2cc(Cl)ccc12)NC(=O)CCl [158H9] (ClAc-[Trp(6-Cl)]-[Pip]-Trp-NH2) | ~3 | > 5 | > 5 | ~0.5 | > 5
2 | NC(=O)[C@H](Cc1c[nH]c2ccc(F)cc12)NC(=O)[C@@H]1CCCCN1C(=O)[C@@H]1Cc2c([nH]c3ccccc23)CN1C(=O)CCl [164A10] | ~2.5 | ~2.5 | ~2.5 | < 0.167 | > 5
